Patent US6720184B1, “Method of altering sphingolipid metabolism and detecting fumonisin ingestion and contamination” (Emory University, priority 1991, dated 2004)

How the values were obtained:
rat hepatocytes [1] = test: radiolabelling of phospholipids from [14C]serine in hepatocytes; type: cell-based; conditions: 16 h with [14C]serine
Experimental: Other methods—The incorporation of radiolabel into other lipids was determined by separating the phospholipids by TLC using silica gel H plates developed with CHCl,:methanol:formic acid:water (56:30:2:1, v/v/v/v), visualization of the spots and standards with I2 vapor, and quantitation by scintillation counting. The amount of label in fatty acids was estimated using samples that had been incubated with 0.1 M KOH in methanol for 1 h at 37° C. and separated using the ceramide TLC system because the methyl esters migrate near the solvent front under these conditions.

[2] = test system: de novo sphingolipid biosynthesis; test: [14C]sphingosine biosynthesis by hepatocytes isolated from rats given fumonisin B1 by gavage; type: in vivo, rat; conditions: 5 mg/200 g body weight by gavage for 2 days
ceramide synthase = test: conversion of [3H]sphingosine to [3H]ceramide by intact hepatocytes; type: cell-based, rat; conditions: 1 μM for 1 h before [3H]sphingosine (FIG. 4D)
Experimental: To measure the relative activity of ceramide synthase in intact hepatocytes, the cells were incubated with 1 μM fumonisin B1 for 1 h, then 1 μCi of [^3H]sphingosine was added and the cells were incubated for varying times. The [^3H]sphingosine was freshly purified because it decomposes rapidly to a material with an Rf similar to that of ceramides on TLC. The [^3H]sphingosine was diluted to 1 Ci/mmol and applied to a small silica gel column (Unisil, Clarkston, Ill.) in chloroform. The column was washed with 10-column volumes of chloroform, the [^3H]sphingosine was eluted with methanol and the purity confirmed by TLC. The [^3H]sphingosine was transferred to a small test tube, the solvent was evaporated under N2, a small volume of culture medium was added immediately, and the tube was sonicated for a few minutes using a bath-type sonicator. Aliquots of this solution were added to the cells, and at the end or the specified incubation period the cells were scraped from the dish, 25 μg of unlabelled ceramide carrier was added, and the lipids were extracted as described above. The [^3H]ceramides were separated from [^3H]sphingosine using silica gel H TLC plates developed with diethyl ether:methanol (99:1, v/v), visualized with I2 vapor, and the amount of radiolabel was determined by scintillation counting.

rat hepatocytes [3] = test: hepatocyte viability (trypan blue exclusion); type: cell-based; conditions: 1 μM, 4 d
Experimental: Hepatocyte culture—Hepatocytes were prepared by a collagenase perfusion method, as known in the art as described in (22), from male Sprague-Dawley rats (125 to 200 g) fed a chow diet (Ralston Purina, St. Louis, Mo.) ad libitum. The hepatocytes were isolated using carefully aseptic procedures and plated in 60 mm tissue culture dishes coated with collagen for short term (<24 h) or with Matrigel for longer term (3 to 4 d) experiments. After plating for 4 h, the medium was changed to 2 ml of DMEM (with 3.7 g/L NaHCO3) containing 10 μg/ml f insulin, 6.1 g/L of penicillin, 10 g/L of streptomycin sulfate, and varying concentrations of fumonisins (added from a 1 mM solution in Delbecco's phosphate buffered saline). The cells were maintained in a tissue culture incubator at 37° C. and an atmosphere of 5% CO2; the medium was changed every 24 h.

[4] = reference 13; cited from earlier work
serum sphingolipids = test: free long-chain bases in sera of ponies fed fumonisin-contaminated feed; type: in vivo, pony; conditions: for serum sphinganine / serum sphingosine: pony 341, 22 ppm
Experimental: Materials—Corn screenings were ground in a Romer Mill (Romer Labs, Chesterfield, Mo.) and mixed thoroughly. Samples were taken from each lot and analyzed for fumonisins by high-performance liquid chromatography (HPLC) and thin-layer chromatography as is known in the art as previously described in (15). […] Using the mean fumonisin B1 level, individual rations were prepared daily by adding the corn screenings to pellets (NADC Horse Ration, Code 560, Purina Mills, St. Louis, Mo.) and molasses (Promolas Easy Mixer supreme, Pacific Molasses Co., San Francisco, Calif.) to yield the fumonisin concentrations cited in the text. In general, the ration contained 60% pellets, 10% molasses, and 30% corn screenings. The control diet consisted of pellets plus molasses.
Feeding protocols—Clinically normal ponies of varying age and sex were conditioned on the control diet for 21 days prior to the trial. Horse 341 was a 6 year old gelding (173-193 Kg), 299 was a 12 year old mare (205-215 Kg), 164 was a 12 year old mare (206-290 Kg) and 166 was a 16 year old mare (143-164 Kg). During the conditioning period and throughout the trial, all ponies received alfalfa hay by free choice. The test groups were fed varying levels of fumonisin (15 to 44 ppm) for varying lengths of time.
Analysis of serum long-chain bases—Blood was drawn approximately twice a week, centrifuged to obtain serum, and aliquots were frozen for analyses of free sphingosine and sphinganine by HPLC as is known in the art as described in (28). To quantitate total sphingolipids in some samples, the extracts were acid hydrolyzed before preparing the samples for HPLC.

[5] = test system: serine palmitoyltransferase; test: in vitro assay of serine palmitoyltransferase, rat liver microsomes; type: biochemical
Experimental: In vitro assays of serine palmitoyltransferase and ceramide synthase. A microsomal fraction was isolated from rat liver and assayed for serine palmitoyltransferase, as is known in the art as described in (24,29), and ceramide synthase, as is known in the art as described in (30), in the presence of varying concentrations of fumonisin B1. […] The reaction was initiated by adding palmitoyl-CoA and, after incubation at 37° C. for 15 min, the products were extracted, resolved by TLC, and quantitated as described above. Background counts were subtracted using data from identical assays that omitted palmitoyl-CoA.

rat hepatocytes [6] = test: mass measurements of phospholipids, total sphingolipids and free long-chain bases in hepatocytes; type: cell-based; conditions: for Mass Phosphatidylcholine / Mass Phosphatidylethanolamine / Mass Phosphatidylserine / Mass Total sphingolipids: 16 h
Experimental: Mass measurements of the long-chain bases were conducted by HPLC, as is known in the art as previously described in (28), with C20-sphinganine as an internal standard. To quantitate total sphingolipids, the extracts were acid hydrolyzed before preparing the samples for HPLC and corrected, if necessary, for any losses during hydrolysis or extraction by spiking replicate samples with a known amount of ceramide or sphingomyelin.

[7] = pony #212, initially 44 ppm, by 7 days

Q: What does the source list for `CCCC[C@@H](C)[C@@H](OC(=O)C[C@@H](CC(=O)O)C(=O)O)[C@H](C[C@@H](C)C[C@H](O)CCCC[C@@H](O)C[C@H](O)[C@H](C)N)OC(=O)C[C@@H](CC(=O)O)C(=O)O` [fumonisin B1]?
A: Radiolabelling Phosphatidylcholine (rat hepatocytes [1]; 1 μM): 2640 ± 264 cm/mg protein × 10^−3; Radiolabelling Phosphatidylethanolamine (rat hepatocytes [1]; 1 μM): 163 ± 4.4 cm/mg protein × 10^−3; Radiolabelling Phosphatidylserine (rat hepatocytes [1]; 1 μM): 48.8 ± 2.9 cm/mg protein × 10^−3; Radiolabelling Phosphatidylcholine (rat hepatocytes [1]; 10 μM): 2740 ± 196 cm/mg protein × 10^−3; Radiolabelling Phosphatidylethanolamine (rat hepatocytes [1]; 10 μM): 153 ± 10 cm/mg protein × 10^−3; Radiolabelling Phosphatidylserine (rat hepatocytes [1]; 10 μM): 52.3 ± 3.6 cm/mg protein × 10^−3; ratio of free [14C]sphingosine to [14C]sphinganine [2]: 0.5±0.1; [3H]sphingosine conversion to ceramides (ceramide synthase): Inhibition; number of viable cells (rat hepatocytes [3]): no decrease; disease caused [4]: porcine pulmonary edema; Ratio Sa/So (serum sphingolipids; Pony #164, feed 44 ppm, day 2): 0.60; Sphinganine, free, serum (serum sphingolipids; Pony #164, feed 44 ppm, day 2): 70.2 ± 4.2 pmol/mL; Sphingosine, free, serum (serum sphingolipids; Pony #164, feed 44 ppm, day 2): 117 ± 7 pmol/mL; Ratio Sa/So (serum sphingolipids; Pony #164, feed 44 ppm, day 7): 1.67; Sphinganine, free, serum (serum sphingolipids; Pony #164, feed 44 ppm, day 7): 253 ± 22 pmol/mL; Sphingosine, free, serum (serum sphingolipids; Pony #164, feed 44 ppm, day 7): 152 ± 13 pmol/mL; Ratio Sa/So (serum sphingolipids; Pony #164, feed 44 ppm, day 10): 1.25; Sphinganine, free, serum (serum sphingolipids; Pony #164, feed 44 ppm, day 10): 283 ± 18 pmol/mL; Sphingosine, free, serum (serum sphingolipids; Pony #164, feed 44 ppm, day 10): 226 ± 20 pmol/mL; Ratio Sa/So (serum sphingolipids; Pony #166, feed 44 ppm, day 2): 0.87; Sphinganine, free, serum (serum sphingolipids; Pony #166, feed 44 ppm, day 2): 37.2 ± 0.2 pmol/mL; Sphingosine, free, serum (serum sphingolipids; Pony #166, feed 44 ppm, day 2): 43 ± 6 pmol/mL; Ratio Sa/So (serum sphingolipids; Pony #166, feed 44 ppm, day 7): 0.95; Sphinganine, free, serum (serum sphingolipids; Pony #166, feed 44 ppm, day 7): 62 ± 8 pmol/mL; Sphingosine, free, serum (serum sphingolipids; Pony #166, feed 44 ppm, day 7): 66 ± 16 pmol/mL; Ratio Sa/So (serum sphingolipids; Pony #166, feed 44 ppm, day 10): 1.92; Sphinganine, free, serum (serum sphingolipids; Pony #166, feed 44 ppm, day 10): 179 ± 8 pmol/mL; Sphingosine, free, serum (serum sphingolipids; Pony #166, feed 44 ppm, day 10): 92 ± 4 pmol/mL; Ratio Sa/So (serum sphingolipids; Pony #166, feed 44 ppm, day 13): 1.72; Sphinganine, free, serum (serum sphingolipids; Pony #166, feed 44 ppm, day 13): 174 ± 18 pmol/mL; Sphingosine, free, serum (serum sphingolipids; Pony #166, feed 44 ppm, day 13): 100 ± 8 pmol/mL; increase in serum sphinganine versus level immediately prior to feeding (serum sphingolipids; pony 164, 44 ppm, day 2): 6 fold; ratio of sphinganine to sphingosine versus pre-feeding (serum sphingolipids; pony 164, 44 ppm, day 2): doubled; increase in serum sphinganine versus initial level (serum sphingolipids; pony 164, 44 ppm, day 7): 22 fold; serum sphingosine versus initial level (serum sphingolipids; pony 164, 44 ppm, day 7): 3.6 fold; increase in serum sphinganine (serum sphingolipids; pony 166, 44 ppm, day 2): 2.7 fold; elevation in serum sphinganine (serum sphingolipids; pony 166, 44 ppm, day 10): 13 fold; elevation in serum sphingosine (serum sphingolipids; pony 166, 44 ppm, day 10): 2 fold; serum sphinganine (serum sphingolipids; day 231): 256 pmol/mL; serum sphingosine (serum sphingolipids; day 231): 163 pmol/mL; serum sphinganine (serum sphingolipids; day 235): 532 pmol/mL; serum sphingosine (serum sphingolipids; day 235): 418 pmol/mL; sphinganine to sphingosine ratio (serum sphingolipids; pony 341, reintroduction of 22 ppm on day 182): > 1.5; further increase of serum sphingosine versus day 2 (serum sphingolipids; [7]): 2 fold; serum sphinganine versus level at day 2 (serum sphingolipids; [7]): 6.7 fold; sphinganine exceeding level of sphingosine (serum sphingolipids; [7]): 1.9 fold; serum sphingosine level (serum sphingolipids; pony #212, initially 44 ppm, within 2 days): 147 ± 5 pmol; ratio of sphinganine to sphingosine (serum sphingolipids; pony #341, 15 ppm, first 130 days): fairly consistent elevation over the initial value; effect on activity of serine palmitoyltransferase in vitro ([5]; 25 μM): did not reduce; activity of serine palmitoyltransferase in vitro ([5]; in the presence of 25 μM): 88±3 pmol 3-ketosphinganine formed/min/mg of microsomal protein; Mass Phosphatidylcholine (rat hepatocytes [6]; 1 μM): 105 ± 1.8 nmol/mg protein; Mass Phosphatidylethanolamine (rat hepatocytes [6]; 1 μM): 44.9 ± 1.4 nmol/mg protein; Mass Phosphatidylserine (rat hepatocytes [6]; 1 μM): 15.5 ± 2.6 nmol/mg protein; Mass Total sphingolipids (rat hepatocytes [6]; 1 μM): 6.7 ± 0.3 nmol/mg protein; fold increase of sphinganine versus control (rat hepatocytes [6]; 1 μM, 4 d): 110 fold; free sphingosine (rat hepatocytes [6]; 1 μM, 4 d): 52±1 pmol/dish; mass of free sphinganine (rat hepatocytes [6]; 1 μM, 4 d): 1499±18 pmol/dish; level of total sphingolipids (rat hepatocytes [6]; 1 μM, 4 d, cells on Matrigel): 2.1±0.1 nmol/dish; reduction of level of total sphingolipids (rat hepatocytes [6]; 1 μM, 4 d, cells on Matrigel): about half; Mass Phosphatidylcholine (rat hepatocytes [6]; 10 μM): 112 ± 3.4 nmol/mg protein; Mass Phosphatidylethanolamine (rat hepatocytes [6]; 10 μM): 44.4 ± 0.9 nmol/mg protein; Mass Phosphatidylserine (rat hepatocytes [6]; 10 μM): 12.3 ± 1.9 nmol/mg protein; Mass Total sphingolipids (rat hepatocytes [6]; 10 μM): 6.5 ± 0.7 nmol/mg protein; amount of free sphingosine (rat hepatocytes [6]; within the first 2 h (FIG. 4B)): only a small reduction
